# Measured values from patent publication US11634442B2, “Methods for the purification of L-glufosinate” (BASF SE, priority 2017, dated 2023).
# Test: Solid form stability on storage over desiccant (XRPD, ion chromatography)
# Description: X-ray Power Diffraction (XRPD), Reflection Mode: XRPD patterns were collected with a PANalytical X'Pert PRO MPD diffractometer using an incident beam of Cu Kα radiation produced using a long, fine-focus source and a nickel filter. The diffractometer was configured using the symmetric Bragg-Brentano geometry. […] A specimen of the sample was prepared as a thin, circular layer centered on a silicon zero-background substrate. Antiscatter slits (SS) were used to minimize the background generated by air. Soller slits for the incident and diffracted beams were used to minimize broadening from axial divergence. Diffraction patterns were collected using a scanning position-sensitive detector (X'Celerator) located 240 mm from the sample and Data Collector software v. 2.2b.
# XRPD, Transmission Mode: XRPD patterns were collected with a PANalytical X'Pert PRO MPD diffractometer using an incident beam of Cu radiation produced using an Optix long, fine-focus source. An elliptically graded multilayer mirror was used to focus Cu Kα X-rays through the specimen and onto the detector. […] A specimen of the sample was sandwiched between 3-μm-thick films and analyzed in transmission geometry. A beam-stop, short antiscatter extension, antiscatter knife edge were used to minimize the background generated by air. Soller slits for the incident and diffracted beams were used to minimize broadening from axial divergence. Diffraction patterns were collected using a scanning position-sensitive detector (X'Celerator) located 240 mm from the specimen and Data Collector software v. 2.2b.
# Form B was characterized by ^1H NMR, IC, DSC, and TGA.
smiles,measurement,setting,value
CP(=O)(O)CC[C@H](N)C(=O)O.N [Form A],form change by XRPD upon storage over desiccant,"Form A from 93/7 v/v methanol/water slurry, storage time not given",converted to Form B with minor additional peaks
same,overall assessment of form stability,prone to conversion to Form B,metastable
CP(=O)(O)CC[C@H](N)C(=O)O [Form B],change in XRPD pattern upon storage over desiccant for 47 days,47 days over desiccant,No significant changes
CP(=O)(O)CC[C@H](N)C(=O)O.N [Form C],ammonium content by IC after storage under desiccant for 36 days,"sample of Form C with minor Form A, 6.3 wt % initially",3.2 wt %
same,form change by XRPD after storage under desiccant for 36 days,"sample of Form C with minor Form A, 36 days under desiccant",conversion to Form B with minor Form A and a few minor additional peaks
CP(=O)(O)CC[C@H](N)C(=O)O [Form D],change in XRPD pattern upon storage over desiccant,"sample of Form D+minor Form A, storage time not given",No significant changes
